The source of these data is patent publication US6589992B2, “Inhibiting collagen-induced platelet aggregation” (Parker Hughes Institute, priority 1999, dated 2003).

The assay concerns ICR mice. The experiment in a line: Thromboplastin-induced fatal thromboembolism in mice. The following applies: N=10. In kind it is in vivo. Here is the method:
The mice were challenged with 25 mg/kg thromboplastin (Sigma, St. Louis, Mo.) via a bolus i.v. injection in to the tail vein as previously described (Sato et al., 1998). At the time of thromboembolism-related death, after the thromboplastin injection or elective sacrifice at 48 hours using ketamine/xylazine, all mice were perfused with PBS followed by 4% phosphate buffered formalin. PBS and formalin were pumped through the left ventricle of the heart and allowed to exit through a 3 mm incision through the anterior wall of the right ventricle.

For `CC(=O)CC(c1ccccc1)c1c(O)c2ccccc2oc1=O` (centres unmarked) [warfarin, reference compound], the “probability of event-free survival after thromboplastin challenge” value (warfarin 3 mg/kg i.p. 18 hours prior) is 10±9%. For the setting “warfarin 3 mg/kg”, this molecule came in with a median survival time of 5.3 min.
